# Laboratory results taken from patent US9656953B2, “Inhibition of cell proliferation” (University of South Florida, priority 2005, dated 2017).
# System: A549 tumors
# Assay: Immunohistochemistry staining of A549 xenograft tumors
# Format: in vivo, nude mice
# Conditions: A549 tumors at end of treatment
# From the text: Immunohistochemistry staining. Upon termination of xenograft anti-tumor experiments, tumors were removed and fixed in 10% neutral-buffered formalin before processing into paraffin blocks. Tissue sections (5 micrometers (μm) thick) were cut from the blocks and stained with Ki-67, CD31, TUNEL, and phospho-Rb antibodies. Paraffin sections were rehydrated to PBS and processed using the following protocols. Sections were rinsed in dH2O, and then subjected to microwave ‘antigen retrieval’ for 20 minutes on 70% power, with a 1 minute cooling period after every 5 minutes, in 0.01 M sodium citrate, pH 6.0 (Janssen P J, Brinkmann A O, Boersma W J, Van der Kwast T H. J Histochem Cytochem 1994; 42(8):1169-75; Shi S R, Key M E, Kalra K L. J Histochem Cytochem 1991; 39(6):741-748). Sections were cooled for 20 minutes, rinsed 3 times in dH2O, twice in PBS and incubated in 5% normal goat serum for 30 minutes. Sections were incubated in primary antibody for 1 hour in 5% normal goat serum, rinsed 3 times in PBS. For color development the slides were treated with ABC kit (Vector Labs, Burlingame, Calif.) rinsed in dH2O, and developed using DAB as chromogen. After a final rinse in dH2O, sections were lightly counterstained in hematoxylin, dehydrated, cleared and coverslipped. Tissue sections were stained with hematoxylin and eosin (H&E) using standard histological techniques. Tissue sections were also subjected to immunostaining for CD31 (BD Biosciences, San Diego, Calif., USA) using the avidin-biotin peroxidase complex technique. Mouse monoclonal antibody was used at 1:50 dilution following microwave antigen retrieval (four cycles of 5 min each on high in 0.1 M citrate buffer). Apoptotic cells were detected using DeadEnd Colorimetric TUNEL system (Promega, Madison, Wis.).
# At the end of the drug treatment, the A549 tumors were removed from the mice and fixed in formalin or snap frozen in liquid nitrogen for further histochemical analysis. The tumors were analyzed by immunohistochemistry staining with hematoxylin and eosin (H&E), TUNEL, Ki-67, phospho-Rb (807,811), and CD-31. […] Tumors were homogenized and lysates were prepared to assess the inhibition of Rb:Raf-1 interaction in vivo.
compound,measurement,value
Cl.N=C(N)SCc1ccc(Cl)cc1Cl [Compound 3a],"apoptosis, TUNEL staining of tumors",dose dependent increase in apoptosis
same,"microvasculature, CD31 staining of tumors",reduction in microvasculature
same,phospho-Rb staining of tumors,reduction in phosphorylation of Rb
same,"proliferation, Ki-67 staining of tumors",significant inhibition of proliferation
